Source: patent publication US8592448B2 (OSI Pharmaceuticals, LLC, priority 2008, dated 2013)
Like-named read-outs stand apart in the source and are kept apart here.

Experiments:
MKN45 cells = test: MKN45 cell proliferation assay (CellTiter-Glo); type: cell-based; settings: MKN45 cell line, 3 days incubation, at least duplicate experiments, read-out: Prolif. IC50
Experimental: The effect of inhibitors on the proliferation of MKN45 cells was determined using the following protocol. MKN45 cells were plated in Corning 3917 96-well white tissue culture treated plates in growth medium (RPMI, 10% FCS) at a density of 5000 cells/well in a total volume of 135 μL and incubated at 37° C., 5% CO2, 95% humidity overnight. The following day, one-tenth volume of a 10× concentration of compounds was added to the wells in an 8-point dilution series. The dilution series was composed of an initial 1:5 dilution of a 10 mM stock of compound in DMSO, followed by serial 1:4 dilutions in DMSO, then a 1:20 dilution in growth medium prior to the 1:10 dilution into the cell plate. Final DMSO concentration on the cells was 0.1%, there were control wells treated with both 0.1% DMSO and no DMSO. The typical dilution range is 10 μM to 0.6 nM. Once the compound was added to the cells, plates were incubated for 3 days at 37° C., 5% CO2 at 95% humidity. On the third day, after allowing all cells and reagents to come to room temperature, 25 μL of CellTiter-Glo reagent (Promega # G7573) was added to the wells. Plates were shaken on a platform for 10 minutes prior to reading luminescence for 0.1 seconds. The signal of the control wells was taken as 100% growth and growth inhibition was expressed as percent of control. IC50 values were determined from the percent of control data using a standard four-parameter model.
(§1) The IC50 values of exemplary compounds of the present invention determined in a cell proliferation assay using the MKN45 cell line according to the procedures described herein in at least duplicate experiments are abbreviated as follows and are shown in Table 2: A, IC50≦0.1 μM; B, 0.1 μM<IC50≦1 μM; C, 1 μM<IC50≦10 μM; D, IC50>10 μM; ND, not determined. The Example # of Table 2 corresponds to the compound example number as illustrated in the Examples section.

phosphorylated c-MET = molecular target: T1, phosphorylated c-MET (Homo sapiens, UniProt P08581); test: c-MET cell mechanistic assay (phosphorylated c-MET in MKN45 cells); type: cell-based; settings: MKN45 cell line, four hours incubation, phosphorylated c-MET levels, at least duplicate experiments; read-out: Met mech IC50
T1 construct: endogenous in cells; host or cells: MKN45
Experimental: The cellular activity of the compounds of the present invention may be determined by the following procedure. MKN45 cells were plated in Falcon 3072 96-well plates in growth media (RPMI, 10% FBS, 1% L-glutamine) at a density of 5000 cells/well and incubated at 37° C., 5% CO2 overnight. The following day, one-tenth volume of a 10× concentration of compounds was added to the wells in a 6-point dilution series. The dilutions series was composed of an initial 1:5 dilution in DMSO, followed by a 1:10 dilution in growth media, for a final DMSO concentration on cells of 0.5%. Control wells were treated with 0.5% DMSO. The typical range of dilution was 10 μM to 3 nM. Once compound was added to the cells, plates were incubated for four hours at 37° C., 5% CO2. Plates were then washed in PBS, and lysed in triton-based lysis buffer. Lysates were transferred to a precoated capture plate made by Biosource (Cat # KH00281). The phosphorylated c-MET levels were measured by incubating with a rabbit polyclonal antibody against phosphorylated c-MET ([pYpYpY1230/1234/1235]) followed by an anti-rabbit antibody conjugated to HRP. Signal was measured on a Wallac Victor plate reader at 450 nm. The DMSO signal of the control wells was defined as 100% and the percent of inhibition of phosphorylated c-Met was expressed as percent of control. IC50 values were determined from the percent of control data using a standard four-parameter model.
as §1, with “in a c-MET cell mechanistic” for “in a cell proliferation”, “c-MET cell mechanistic assay using” for “a cell proliferation assay using”, “in Table 3: A, IC50≦0.1” for “in Table 2: A, IC50≦0.1”, “of Table 3 corresponds to” for “of Table 2 corresponds to”

T1 sequence (P08581 25-1390): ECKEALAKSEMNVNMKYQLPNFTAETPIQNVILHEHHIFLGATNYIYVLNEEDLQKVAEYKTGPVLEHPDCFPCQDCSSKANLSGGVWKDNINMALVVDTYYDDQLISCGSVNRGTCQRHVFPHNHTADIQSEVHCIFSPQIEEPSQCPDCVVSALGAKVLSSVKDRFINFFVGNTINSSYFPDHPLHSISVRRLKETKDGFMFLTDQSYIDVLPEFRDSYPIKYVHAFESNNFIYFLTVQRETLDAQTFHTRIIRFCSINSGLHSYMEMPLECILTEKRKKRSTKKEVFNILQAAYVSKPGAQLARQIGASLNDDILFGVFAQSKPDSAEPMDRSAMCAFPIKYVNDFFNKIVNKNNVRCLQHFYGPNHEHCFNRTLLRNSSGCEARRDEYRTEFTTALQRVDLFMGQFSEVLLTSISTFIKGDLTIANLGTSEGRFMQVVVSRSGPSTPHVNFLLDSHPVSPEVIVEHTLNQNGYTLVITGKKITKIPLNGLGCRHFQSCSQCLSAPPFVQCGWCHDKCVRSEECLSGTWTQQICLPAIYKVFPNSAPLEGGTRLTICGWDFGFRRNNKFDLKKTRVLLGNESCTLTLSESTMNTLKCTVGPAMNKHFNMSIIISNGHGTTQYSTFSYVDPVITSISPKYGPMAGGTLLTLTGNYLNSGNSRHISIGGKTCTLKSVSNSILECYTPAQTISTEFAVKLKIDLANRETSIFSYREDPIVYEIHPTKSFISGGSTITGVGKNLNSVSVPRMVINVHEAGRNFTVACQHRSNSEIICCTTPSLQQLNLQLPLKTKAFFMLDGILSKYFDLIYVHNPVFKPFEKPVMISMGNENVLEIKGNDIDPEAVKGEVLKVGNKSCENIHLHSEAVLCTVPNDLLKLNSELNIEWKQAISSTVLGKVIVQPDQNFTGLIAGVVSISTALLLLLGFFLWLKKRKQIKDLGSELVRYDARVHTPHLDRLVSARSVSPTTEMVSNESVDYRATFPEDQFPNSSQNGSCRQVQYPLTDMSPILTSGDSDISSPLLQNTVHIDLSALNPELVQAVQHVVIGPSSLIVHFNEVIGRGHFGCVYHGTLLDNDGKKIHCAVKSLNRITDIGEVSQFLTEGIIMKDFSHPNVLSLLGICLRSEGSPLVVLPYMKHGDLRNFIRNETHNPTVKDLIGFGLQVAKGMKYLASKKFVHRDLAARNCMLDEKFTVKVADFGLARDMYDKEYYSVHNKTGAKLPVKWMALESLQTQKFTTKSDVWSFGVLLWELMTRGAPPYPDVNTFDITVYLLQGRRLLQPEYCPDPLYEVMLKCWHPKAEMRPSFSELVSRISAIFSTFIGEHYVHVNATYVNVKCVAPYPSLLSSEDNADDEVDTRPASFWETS

Compound | IC50 (MKN45 cells; Homo sapiens, MKN-45, 72 h) [nM] | IC50 (phosphorylated c-MET) [nM] | IC50 (MKN45 cells) [nM]
CC(c1c(Cl)ccc(F)c1Cl)c1c[nH]c2ncc(-c3cnn(C4CCN(C(=O)N(C)C)CC4)c3)cc12 (centres unmarked) [Example 28, 4-(4-{3-[1-(2,6-Dichloro-3-fluorophenyl)ethyl]-1H-pyrrolo[2,3-b]pyridin-5-yl}-pyrazol-1-yl)-piperidine-1-carboxylic acid dimethylamide] | ≤ 100 | ≤ 100 | –
C[C@H](c1c(Cl)ccc(F)c1Cl)c1c[nH]c2ncc(-c3cnn(CC(=O)N4CCOCC4)c3)cc12 [Example 78, 2-(4-{3-[(S)-1-(2,6-Dichloro-3-fluorophenyl)ethyl]-1H-pyrrolo[2,3-b]pyridin-5-yl}-pyrazol-1-yl)-1-morpholin-4-ylethanone] | ≤ 100 | ≤ 100 | –
CC(c1c(Cl)ccc(F)c1Cl)c1c[nH]c2ncc(-c3cnn(C(C)(C)CO)c3)cc12 (centres unmarked) [Example 65, 2-(4-{3-[1-(2,6-Dichloro-3-fluorophenyl)ethyl]-1H-pyrrolo[2,3-b]pyridin-5-yl}-pyrazol-1-yl)-2-methylpropan-1-ol] | 100 to 1000 | ≤ 100 | –
C[C@@H](c1c(Cl)ccc(F)c1Cl)c1c[nH]c2ncc(-c3cnn(C4CCNCC4)c3)cc12 [Example 81, 3-[(R)-1-(2,6-Dichloro-3-fluorophenyl)ethyl]-5-(1-piperidin-4-yl-1H-pyrazol-4-yl)-1H-pyrrolo[2,3-b]pyridine] | 100 to 1000 | 100 to 1000 | –
2-(4-{3-[(S)-1-(2,6-Dichloro-3-fluorophenyl)ethyl]-1H-pyrrolo[2,3-b]-pyridin-5-yl}-pyrazol-1-yl)-acetamide [Example 75] | – | ≤ 100 | 100 to 1000
CC(c1c(Cl)ccc(F)c1Cl)c1c[nH]c2ncc(-c3cnn(C)c3)cc12 (centres unmarked) [Example 27, 3-[1-(2,6-Dichloro-3-fluorophenyl)-ethyl]-5-(1-methyl-1H-pyrazol-4-yl)-1H-pyrrolo[2,3-b]pyridine] | 100 to 1000 | ≤ 100 | –
C[C@H](c1c(Cl)ccc(F)c1Cl)c1c[nH]c2ncc(-c3cnn(CC(N)=O)c3)cc12 [Example 77, 2-(4-{3-[(S)-1-(2,6-Dichloro-3-fluorophenyl)ethyl]-1H-pyrrolo[2,3-b]-pyridin-5-yl}-pyrazol-1-yl)-acetamide] | ≤ 100 | ≤ 100 | –
CC(c1c(Cl)ccc(F)c1Cl)c1c[nH]c2ncc(-c3cn[nH]c3)cc12 (centres unmarked) [Example 26, 3-[1-(2,6-Dichloro-3-fluorophenyl)-ethyl]-5-(1H-pyrazol-4-yl)-1H-pyrrolo[2,3-b]pyridine] | 100 to 1000 | 100 to 1000 | –
CNC(=O)C(C)(C)n1cc(-c2cnc3[nH]cc(C(C)c4c(Cl)ccc(F)c4Cl)c3c2)cn1 (centres unmarked) [Example 62, 2-(4-{3-[1-(2,6-Dichloro-3-fluorophenyl)ethyl]-1H-pyrrolo[2,3-b]pyridin-5-yl}-pyrazol-1-yl)-N-methylisobutyramide] | 100 to 1000 | ≤ 100 | –
CC(c1c(Cl)ccc(F)c1Cl)c1c[nH]c2ncc(-c3cnn(C(C)(C)C(=O)N(C)C)c3)cc12 (centres unmarked) [Example 63, 2-(4-{3-[1-(2,6-Dichloro-3-fluorophenyl)ethyl]-1H-pyrrolo[2,3-b]pyridin-5-yl}-pyrazol-1-yl)-N,N-dimethylisobutyramide] | 100 to 1000 | ≤ 100 | –
CC(c1c(Cl)ccc(F)c1Cl)c1c[nH]c2ncc(-c3cnn(C4CCN(S(C)(=O)=O)CC4)c3)cc12 (centres unmarked) [Example 50, 3-[1-(2,6-Dichloro-3-fluorophenyl)-ethyl]-5-[1-(1-methanesulfonyl-piperidin-4-yl)-1H-pyrazol-4-yl]-1H-pyrrolo[2,3-b]pyridine] | 100 to 1000 | ≤ 100 | –
CC(c1c(Cl)ccc(F)c1Cl)c1c[nH]c2ncc(-c3ccc(N)cc3)cc12 (centres unmarked) [Example 18, 4-{3-[1-(2,6-Dichloro-3-fluorophenyl)ethyl]-1H-pyrrolo[2,3-b]pyridin-5-yl}phenylamine] | 100 to 1000 | 100 to 1000 | –
CC(c1c(Cl)ccc(F)c1Cl)c1c[nH]c2ncc(C3=CCN(C(=O)N(C)C)CC3)cc12 (centres unmarked) [Example 36, 4-{3-[1-(2,6-Dichloro-3-fluorophenyl)-ethyl]-1H-pyrrolo[2,3-b]pyridin-5-yl}-3,6-dihydro-2H-pyridine-1-carboxylic acid dimethylamide] | 100 to 1000 | 100 to 1000 | –
CNC(=O)N1CCC(n2cc(-c3cnc4[nH]cc(C(C)c5c(Cl)ccc(F)c5Cl)c4c3)cn2)CC1 (centres unmarked) [Example 51, 4-(4-{3-[1-(2,6-Dichloro-3-fluorophenyl)ethyl]-1H-pyrrolo[2,3-b]pyridin-5-yl}-pyrazol-1-yl)-piperidine-1-carboxylic acid methylamide] | ≤ 100 | ≤ 100 | –
CC(c1c(Cl)ccc(F)c1Cl)c1c[nH]c2ncc(-c3cnn(C4CCN(CC(F)(F)F)CC4)c3)cc12 (centres unmarked) [Example 29, 3-[1-(2,6-Dichloro-3-fluorophenyl)ethyl]-5-{1-[1-(2,2,2-trifluoroethyl)-piperidin-4-yl]-1H-pyrazol-4-yl}-1H-pyrrolo[2,3-b]pyridine] | 100 to 1000 | 100 to 1000 | –
CC(c1c(Cl)ccc(F)c1Cl)c1c[nH]c2ncc(-c3cccnc3)cc12 (centres unmarked) [Example 88, 3-[1-(2,6-Dichloro-3-fluorophenyl)ethyl]-5-pyridin-3-yl-1H-pyrrolo[2,3-b]pyridine] | 100 to 1000 | 100 to 1000 | –
CC(c1c(Cl)ccc(F)c1Cl)c1c[nH]c2ncc(-c3cnn(C(C)(C)C(N)=O)c3)cc12 (centres unmarked) [Example 64, 2-(4-{3-[1-(2,6-Dichloro-3-fluorophenyl)ethyl]-1H-pyrrolo[2,3-b]pyridin-5-yl}-pyrazol-1-yl)-isobutyramide] | 100 to 1000 | ≤ 100 | –
CC(c1c(Cl)ccc(F)c1Cl)c1c[nH]c2ncc(-c3ccc(C(=O)N4CCN(C)CC4)cc3)cc12 (centres unmarked) [Example 15, (4-{3-[1-(2,6-Dichloro-3-fluorophenyl)ethyl]-1H-pyrrolo[2,3-b]pyridin-5-yl}phenyl)-(4-methylpiperazin-1-yl)methanone] | 100 to 1000 | ≤ 100 | –
C[C@H](c1c(Cl)ccc(F)c1Cl)c1c[nH]c2ncc(-c3cnn(C(C)(C)CO)c3)cc12 [Example 85, 2-(4-{3-[(S)-1-(2,6-Dichloro-3-fluorophenyl)ethyl]-1H-pyrrolo[2,3-b]-pyridin-5-yl}-pyrazol-1-yl)-2-methylpropan-1-ol] | 100 to 1000 | ≤ 100 | –
CC(c1c(Cl)ccc(F)c1Cl)c1c[nH]c2ncc(-c3cnn(C(C)C)c3)cc12 (centres unmarked) [Example 30, 3-[1-(2,6-Dichloro-3-fluorophenyl)ethyl]-5-(1-isopropyl-1H-pyrazol-4-yl)-1H-pyrrolo[2,3-b]pyridine] | 100 to 1000 | ≤ 100 | –
CC(c1c(Cl)ccc(F)c1Cl)c1c[nH]c2ncc(-c3cnn(C4CCN(C(N)=O)CC4)c3)cc12 (centres unmarked) [Example 49, 4-(4-{3-[1-(2,6-Dichloro-3-fluorophenyl)ethyl]-1H-pyrrolo[2,3-b]pyridin-5-yl}-pyrazol-1-yl)-piperidine-1-carboxamide] | ≤ 100 | 100 to 1000 | –
CC(c1c(Cl)ccc(F)c1Cl)c1c[nH]c2ncc(-c3ccc(S(=O)(=O)N(C)C)cc3)cc12 (centres unmarked) [Example 22, 4-{3-[1-(2,6-Dichloro-3-fluorophenyl)ethyl]-1H-pyrrolo[2,3-b]pyridin-5-yl}-N,N-dimethylbenzenesulfonamide] | 1000 to 10000 | 1000 to 10000 | –
